In publication PMC2263054, “Functional evolution of the vitamin D and pregnane X receptors” (BMC Evolutionary Biology, 2007):

Tests used:
[1] = molecular target: T1, Human VDR (Homo sapiens, UniProt P11473); test: luciferase reporter transactivation assay in HepG2-NTCP cells, full-length hVDR with CYP3A4-PXRE-Luc; conditions: HepG2-NTCP cells, luciferase reporter; unit not given; also cells saying No effect
T1 sequence (P11473 1-427): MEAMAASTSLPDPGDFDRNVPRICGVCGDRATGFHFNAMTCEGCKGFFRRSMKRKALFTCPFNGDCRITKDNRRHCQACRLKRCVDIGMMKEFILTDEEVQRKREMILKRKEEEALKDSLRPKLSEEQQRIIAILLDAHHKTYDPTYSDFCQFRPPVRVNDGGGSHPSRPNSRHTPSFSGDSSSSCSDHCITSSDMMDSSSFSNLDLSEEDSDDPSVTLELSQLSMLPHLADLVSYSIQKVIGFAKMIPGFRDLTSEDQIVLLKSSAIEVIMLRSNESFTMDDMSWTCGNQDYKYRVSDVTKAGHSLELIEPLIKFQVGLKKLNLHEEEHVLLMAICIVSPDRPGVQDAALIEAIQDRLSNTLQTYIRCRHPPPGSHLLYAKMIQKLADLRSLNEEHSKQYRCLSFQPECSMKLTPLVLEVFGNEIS

[2] = system: ethoxyresorufin O-deethylase (EROD) activity (CYP1A-like activity); test: EROD assay in zebrafish primary hepatocytes; conditions: zebrafish primary hepatocytes; DIM at concentrations of 2 μM and greater
Procedure: (§1) The cells are cultured at 26°C in ambient atmosphere.

[3] = system: testosterone 6β-hydroxylation activity (CYP3A-like activity); test: testosterone hydroxylation (HPLC) in zebrafish primary hepatocytes
Procedure: as §1
100 μL of sample, calibration standard, or quality material standard were pipetted into separate microcentrifuge tubes and mixed with 100 μL of methanol. Samples were vortexed and centrifuged at 13,000 rpm for 4 min. The supernatant was then injected into the HPLC.
The flow rate was 1.2 mL/min and total run time was 25 min.

[4] = system: zebrafish PXR; conditions: luciferase reporter in HepG2 cells, normalized to 20 μM androstanol
[5] = system: glyceraldehyde 3-phosphate dehydrogenase (GAPDH); test: zebrafish in vivo liver transcription, semi-quantitative RT-PCR: GAPDH; conditions: 15 mg/kg intraperitoneally, single dose, 48 hr
Procedure: Adult zebrafish were purchased from a commercial fish supplier and acclimatized for at least two-weeks in 20 L tanks with flow-through freshwater at 22°C. A single dose of 15 mg/kg of 5α-cyprinol, 5β-cyprinol 27-sulfate, 5α-scymnol or 5β-scymnol-27 sulfate, dissolved in saline, was injected intraperitoneally. A control group was injected with saline. After 48 hr, the animals were decapitated and livers of three fish (n = 5 each group) were removed, pooled and weighed, totalizing 15 fish per group. Fish were not fed throughout the experimental period.
To study the transcription of CYP3C1, ABCB5, PXR, GAPDH and β-actin genes in zebrafish, initial fragments of these genes were identified (Genbank: AW202769, Genbank: BQ284593, Genbank: AAM22215, Genbank: BC083506, Genbank: AF057040, respectively). […] Primer pairs for amplifying CYP3C1 fragment were 5'-[…]-3' (sense) and 5'-[…]-3' (antisense) and for amplifying ABCB5 were 5'-[…]-3' (sense) and 5'-[…]-3' (antisense). The PCR primers for PXR were 5'-[…]-3' (sense) and 5'-[…]-3' (antisense), for amplifying GAPDH were 5'-[…]-3' (sense) and 5' […] 3' (antisense) and for β-actin were 5'-[…]-3' (sense) and 5'-[…]-3' (antisense). RNA was isolated using Trizol (Invitrogen) according to manufacturer's instructions. […] The RNA integrity was checked by non-denaturing gel electrophoresis using 1 μg of total RNA in each sample.
The PXR, CYP3C1, ABCB5 and GAPDH transcript levels were quantified using Gel-Quant™ (Multiplexed Biotechologies) and β-actin was used to normalize the data. The Shapiro-Wilk W test was used to evaluate normality. When data were parametric the analysis was performed using Student t test; otherwise Mann Whitney U test was applied.

[6] = system: Ciona VDR/PXR; conditions: HepG2-NTCP cells, luciferase reporter; unit not given; also cells saying No effect

| Structure (SMILES) | Human VDR EC50 ± SD [1] | effect on EROD activity [2] | increase in 6β-hydroxylation activity compared to vehicle-treated control [3] | activation of recombinant zebrafish PXR [4] | liver transcription of GAPDH [5] | Ciona VDR/PXR EC50 ± SD [6] |
| --- | --- | --- | --- | --- | --- | --- |
| C[C@H](CCCC(CO)COS(=O)(=O)O)[C@H]1CC[C@H]2[C@@H]3[C@H](O)C[C@H]4C[C@H](O)CC[C@]4(C)[C@H]3C[C@H](O)[C@]12C (stereo partly drawn) [5α-Cyprinol 27-sulfate] | No effect | found not to affect EROD activity | 15–20% | all activate recombinant zebrafish PXR | 2.38 ± 0.79 arbitrary units normalized to β-actin | No effect |
| C[C@H](CCCC(CO)CO)[C@H]1CC[C@H]2[C@@H]3[C@H](O)C[C@H]4C[C@H](O)CC[C@]4(C)[C@H]3C[C@H](O)[C@]12C [5α-Cyprinol, 5α-cholestan-3α,7α,12α,26,27-pentol] | No effect | – | – | – | 1.50 ± 0.88 arbitrary units normalized to β-actin | No effect |
